Experimental data from US7851637B2, “Compounds and methods for inhibiting the interaction of BCL proteins with binding partners” (Infinity Pharmaceuticals, Inc., priority 2004, dated 2010).

Assays:
Bcl-2 = Bcl-2 (Homo sapiens, UniProt P10415); experiment: Bcl-2 binding affinity analysis (fluorescence polarization binding assay)
Method in brief: (§1)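 In vitro measurement of compound binding to each protein by fluorescence polarization, described as sensitive and quantitative.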

Bcl-xL = Bcl-xL (Homo sapiens, UniProt Q07817); experiment: Bcl-xL binding affinity analysis (fluorescence polarization binding assay); set-up: scale not given here
Bcl-xL, sequence (Q07817 whole entry): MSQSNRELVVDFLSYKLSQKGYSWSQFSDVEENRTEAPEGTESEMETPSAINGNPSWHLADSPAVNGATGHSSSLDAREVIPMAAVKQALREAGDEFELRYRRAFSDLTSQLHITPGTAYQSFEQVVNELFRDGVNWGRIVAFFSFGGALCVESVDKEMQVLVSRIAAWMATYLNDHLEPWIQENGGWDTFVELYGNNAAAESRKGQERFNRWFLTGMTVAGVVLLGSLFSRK
Method in brief: as §1

Bcl-2, sequence (P10415 whole entry): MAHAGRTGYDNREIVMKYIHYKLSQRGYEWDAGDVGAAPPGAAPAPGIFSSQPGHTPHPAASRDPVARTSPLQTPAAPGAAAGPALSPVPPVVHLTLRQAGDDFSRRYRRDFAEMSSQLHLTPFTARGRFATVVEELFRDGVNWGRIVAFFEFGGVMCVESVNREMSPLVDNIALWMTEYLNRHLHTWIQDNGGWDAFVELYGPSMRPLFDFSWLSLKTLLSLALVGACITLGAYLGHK

SMILES | Ki (Bcl-2) [µM] | Bcl-XL binding affinity Ki (Bcl-xL)
C[C@@H]1[C@@H](NC(=O)[C@@H]2C([C@H](C)O)[C@H](CO)ON2Cc2cccc(CN(CCN(C)C)C(c3ccccc3)c3ccccc3)c2)C[C@H]2C[C@@H]1C2(C)C (stereo partly drawn) [Compound 441] | < 0.8 | ♯
Cc1ccccc1CN(CCN(C)C)Cc1cccc(CN2OC(CO)C(C(C)O)C2C(=O)NC2CC3CC(C2C)C3(C)C)c1 (stereo not drawn) [Compound 372] | < 0.8 | ♯
COc1ccc(O)c(CN(Cc2cccc(CN3OC(CO)C(C(C)O)C3C(=O)NC3CC4CC(C3C)C4(C)C)c2)C(CC(C)C)CN(C)C)c1 (stereo not drawn) [Compound 332] | < 0.8 | ♯
C[C@@H]1C(NC(=O)[C@@H]2[C@H]([C@H](C)O)[C@H](CO)ON2Cc2cccc(-c3ccc(NCCCN(C)C)cc3)c2)C[C@@H]2CC1C2(C)C (stereo partly drawn) [Compound 272] | < 0.8 | ♯
C[C@@H]1[C@@H](NC(=O)[C@@H]2[C@H]([C@H](C)O)[C@H](CO)ON2CCCCN(CCN(C)C)Cc2ccccc2)C[C@H]2C[C@@H]1C2(C)C [Compound 547] | 0.8 to 6 | ♯
CSc1ccccc1CN(Cc1cccc(CN2OC(CO)C(C(C)O)C2C(=O)NC2CC3CC(C2C)C3(C)C)c1)C(CC(C)C)CN(C)C (stereo not drawn) [Compound 330] | < 0.8 | ♯
C[C@H](O)[C@@H]1[C@H](CO)ON(Cc2cccc(C#CC3(N)CCCCC3)c2)[C@@H]1C(=O)NCCCN(C)c1ccccc1 [Compound 28] | 6 to 50 | ♯
CC(C)C[C@@H](CN(C)C)N(Cc1ccccc1)Cc1cccc(CN2O[C@@H](CO)[C@@H]([C@H](C)O)[C@H]2C(=O)NCc2cccc3ccccc23)c1 [Compound 532] | 0.8 to 6 | ♯
C[C@@H](O)[C@H]1[C@@H](CO)ON(Cc2cccc(C#CC3(O)CCCC3)c2)[C@H]1C(=O)NCC1CCCCC1 [Compound 40] | > 50 | ♯
CC(O)C1C(CO)ON(Cc2cccc(CN(CCN(C)C)CC3CC=CCC3)c2)C1C(=O)NC1CC2CC(C1C)C2(C)C (stereo not drawn) [Compound 350] | < 0.8 | ♯
CC(O)C1C(CO)ON(Cc2cccc(C(=O)N(CCN(C)C)Cc3ccccc3)c2)C1C(=O)NC1CC2CC(C1C)C2(C)C (stereo not drawn) [Compound 504] | < 0.8 | ♯
C[C@H](O)[C@@H]1[C@H](CO)ON(Cc2cccc(CN(CCN(C)C)Cc3ccccc3)c2)[C@@H]1C(=O)NC1CCN(Cc2ccccc2)CC1 [Compound 527] | 6 to 50 | ♯
C[C@H](O)[C@@H]1[C@H](CO)ON(Cc2cccc(-c3ccc(NCCN4CCOCC4)cc3)c2)[C@@H]1C(=O)NC1CC2C[C@@H]([C@@H]1C)C2(C)C (stereo partly drawn) [Compound 278] | < 0.8 | ♯
C[C@@H]1[C@@H](NC(=O)[C@@H]2[C@H]([C@H](C)O)[C@H](CO)ON2Cc2cccc(-c3ccc(C(=O)N(C)C)c([N+](=O)[O-])c3)c2)C[C@H]2C[C@@H]1C2(C)C [Compound 136] | < 0.8 | ♯
C[C@@H]1[C@@H](NC(=O)[C@@H]2[C@H]([C@H](C)O)[C@H](CO)ON2Cc2cccc(-c3ccc(C(N)=O)cc3)c2)C[C@H]2C[C@@H]1C2(C)C [Compound 134] | < 0.8 | ♯
C[C@@H]1[C@@H](NC(=O)[C@@H]2[C@H]([C@H](C)O)[C@H](CO)ON2CCCCN(CCN(C)C)Cc2ccccc2F)C[C@H]2C[C@@H]1C2(C)C [Compound 550] | 0.8 to 6 | ♯
CC(O)C1C(CO)ON(Cc2cccc(CN(CCN(C)C)Cc3ccccc3-c3cccc(F)c3)c2)C1C(=O)NC1CC2CC(C1C)C2(C)C (stereo not drawn) [Compound 342] | < 0.8 | ♯

SMILES | Ki (Bcl-2) [µM] | Bcl-XL binding affinity Ki (Bcl-xL)
CC(=O)Nc1cccc(-c2cccc(CN3O[C@@H](CO)[C@@H]([C@H](C)O)[C@H]3C(=O)NC3C[C@H]4C[C@@H]([C@@H]3C)C4(C)C)c2)c1 (stereo partly drawn) [Compound 183] | < 0.8 | ♯♯
CC(C)CC(CN(C)C)NCc1cccc(CN2O[C@@H](CO)C([C@H](C)O)[C@H]2C(=O)NC2CC3CC([C@@H]2C)C3(C)C)c1 (stereo partly drawn) [Compound 223] | < 0.8 | ♯
C[C@@H]1[C@@H](NC(=O)[C@@H]2[C@H]([C@H](C)O)[C@H](CO)ON2Cc2cccc(-c3cccc(C(=O)NCCCO)c3)c2)C[C@H]2C[C@@H]1C2(C)C [Compound 121] | < 0.8 | ♯♯
C[C@@H](O)[C@H]1[C@@H](CO)ON(Cc2cccc(C#CCNC(=O)c3ccccc3)c2)[C@H]1C(=O)NCCNCc1ccccc1 [Compound 61] | 6 to 50 | ♯
CC(O)C1C(CO)ON(Cc2cccc(CN(CCN(C)C)CC3CCCOC3)c2)C1C(=O)NC1CC2CC(C1C)C2(C)C (stereo not drawn) [Compound 382] | < 0.8 | ♯
C[C@@H]1[C@@H](NC(=O)[C@@H]2[C@H]([C@H](C)O)[C@H](CO)ON2Cc2cccc(-c3ccc(S(N)(=O)=O)cc3)c2)C[C@H]2C[C@@H]1C2(C)C [Compound 120] | < 0.8 | ♯♯
C[C@@H]1[C@@H](NC(=O)[C@@H]2[C@H]([C@H](C)O)[C@H](CO)ON2Cc2cccc(CN(CCc3ccccc3)CCN(C)C)c2)C[C@H]2C[C@@H]1C2(C)C [Compound 209] | < 0.8 | ♯
COc1ccc(OC)c(CN(Cc2cccc(CN3OC(CO)C(C(C)O)C3C(=O)NC3CC4CC(C3C)C4(C)C)c2)C(CC(C)C)CN(C)C)c1 (stereo not drawn) [Compound 333] | < 0.8 | ♯
C[C@@H]1[C@@H](NC(=O)[C@@H]2[C@H]([C@H](C)O)[C@H](CO)ON2Cc2cccc(-c3cccc(C(N)=O)c3)c2)C[C@H]2C[C@@H]1C2(C)C [Compound 219] | < 0.8 | ♯
C[C@H](O)[C@@H]1[C@H](CO)ON(Cc2cccc(CN(CCN(C)C)Cc3ccccc3)c2)[C@@H]1C(=O)NC1CCN(C(=O)OC(C)(C)C)CC1 [Compound 528] | 6 to 50 | ♯
CON(C)C(=O)c1ccc(-c2cccc(CN3O[C@@H](CO)[C@@H]([C@H](C)O)[C@H]3C(=O)N[C@H]3C[C@H]4C[C@@H]([C@@H]3C)C4(C)C)c2)cc1 [Compound 124] | < 0.8 | ♯
C[C@@H]1[C@@H](NC(=O)[C@@H]2[C@H]([C@H](C)O)[C@H](CO)ON2Cc2cccc(-c3ccc(S(C)(=O)=O)cc3)c2)C[C@H]2C[C@@H]1C2(C)C [Compound 115] | < 0.8 | ♯
C[C@@H]1[C@@H](NC(=O)[C@@H]2C([C@H](C)O)[C@H](CO)ON2Cc2cccc(C#CC(C)(O)c3ccccc3)c2)C[C@H]2C[C@@H]1C2(C)C (stereo partly drawn) [Compound 43] | 0.8 to 6 | ♯♯
C[C@H](O)[C@@H]1[C@H](CO)ON(Cc2cccc(CN(CCN(C)C)Cc3ccccc3)c2)[C@@H]1C(=O)NCCCCc1ccccc1 [Compound 519] | 0.8 to 6 | ♯
C[C@@H](O)[C@H]1[C@@H](CO)ON(Cc2cccc(C#CCCCCl)c2)[C@H]1C(=O)NCCCN(C)c1ccccc1 [Compound 44] | 6 to 50 | ♯
C[C@@H](O)[C@H]1[C@@H](CO)ON(Cc2cccc(C#CC(O)c3ccc(-c4ccccn4)cc3)c2)[C@H]1C(=O)NCCCN(C)c1ccccc1 (stereo partly drawn) [Compound 252] | < 0.8 | ♯
